The subject of test [1] is BMDMs. Description: Nitric oxide production of pre-stained macrophages polarised to M1 phenotype (Griess test). Format: cell-based, mouse. As to conditions: after 2 days activation with IFNγ and PAM3SCK4; 5-50 μM 6e. As for the experimental part: The impact of SP compound 6e on the BMDMs’ functional characteristics was also assessed by performing cell differentiation into the M1 phenotype in the presence of compound 6e. The BMDMs were treated with 5–50 μM compound 6e and the cell medium was replaced with a macrophage differentiation medium containing recombinant mouse interferon-gamma (IFNγ) and the TLR2/1 ligand PAM3SCK4 to ensure M1 polarisation. Activated cells express proinflammatory molecules (cytokines and chemokines), as well as nitric oxide (NO) as the main features of their proinflammatory M1-like macrophage phenotype. To verify the NO level in cell culture media, nitrites, as nitric oxide oxidation products, were measured by the standard Griess test. […]
For polarisation of macrophages to the pro-inflammatory M1 phenotype, the BMDM cells stained in a 12-well plate were used. […] After two days of activation, the nitric oxide levels (as a main signal of M1 polarisation) were measured in cell supernatants of activated (M1) and non-activated (M0) cells. The amount of nitric oxide was determined via a nitric oxide assay kit (Cat. No. EMSNO; Invitrogen). Briefly, 50 µL of cell culture media was collected from each well, clarified by centrifugation, and used for NO quantification. The nitrite standards provided by the kit were used for standard curve generation and NO quantification. […]
On the technique in general: The Griess reaction detects nitrite, a stable product of nitric oxide.

Test [2] deals with BMDMs. Description: Confocal microscopy, localisation of the staining. Format: cell-based, mouse. As to conditions: 5 μM, confocal microscopy with WGA Alexa Fluor 488 and DAPI. The source says:
The stained BMDMs were studied using confocal microscopy to verify the membrane, cytoplasmic, or nuclear localisation of the staining (Figure 6). Wheat germ agglutinin (WGA) Alexa Fluor 488 (Invitrogen, W11261) was chosen for selective plasma membrane labelling and DAPI (Invitrogen, D1306) was selected for nucleus labelling. […] Furthermore, the SP compound 6e was compared with commercially available CM-DiI Dye (Invitrogen, ex/em: 553/570, Figure 6b).
For confocal microscopy, BMDMs were stained with 4 μM CellTracker™ CM-DiI dye (Cat. No. C7001; Invitrogen) or 5 μM compound 6e. Briefly, the cells were washed and then a dye solution in PBS was added to them. […] Then, the cells were stained with WGA Alexa Fluor 488 (Cat. No. W11261; Invitrogen) following the manufacturer’s instructions. Briefly, the cells were incubated with 1 μg/mL WGA solution in PBS at 37 °C. […] The fluorescence was detected as follows: a DPSS (561 nm) laser was used for excitation of compound 6e and CM-Dil, an argon (488 nm) laser was used for WGA, and a diode (405 nm) laser was used for DAPI. For fluorescence detection, HyD was used for compound 6e and CM-Dil (578 nm–636 nm) and PMT detectors were used for WGA (493 nm–739 nm) and DAPI (417 nm–498 nm), pinhole at 95 µm. The images were analysed using Leica Application Suite X 3.1.5. software (Leica Microsystems, Germany).

For test [3], the system named is BHK-21 cells. Description: Cell passaging assay, flow cytometry on day 6. It counts as cell-based, Syrian hamster. As to conditions: BHK-21, passaged twice, six days of culture; 25 μM 6e or 1 μM Deep Red. As for the experimental part:
In order to assess the stability of staining after prolonged cell culture, the stained BHK-21 cells (Day 1) were passaged twice (Days 2 and 4) and cultured for six days in total (Day 6, Figure 4). On day 6, the cells were collected and analysed by flow cytometry. […] It can be concluded that, in contrast to the Deep Red cell tracker, SP compound 6e effectively stains cells and can be used for up to 6 days of cell culture.
For the cell passaging, on day 0, BHK-21 cells were plated on a 6-well plate with a seeding density of 1.5 × 10^5 cells per well. On day 1, the cells were stained with 25 μM compound 6e or 1 μM CellTracker™ Deep Red dye as described above. […] On day 6, cells were collected for flow cytometry analysis. The cells were kept at 4 °C and analysed as described above.

The structures appear in SMILES notation. “Also recorded” adds a separate entry of the source.

Regarding `CCCCCCCCCCCCCCCC[n+]1ccc(C=CC=Cc2cc3c4c(c2)CCCN4CCC3)cc1.[Br-]` [Compound 6e, 1-hexadecyl-4-(4-(2,3,6,7-tetrahydro-1H,5H-pyrido[3,2,1-ij]quinolin-9-yl)buta-1,3-dien-1-yl)pyridin-1-ium bromide], the “NO production of stained BMDMs” value in test [1] is recorded as “up to 21.5 µM”. Further, in test [2], the “localisation of the staining in cells” value was “strong fluorescent signal localised in the cell cytoplasm, whereas the cell nuclei were not stained; also recorded: localised in the cell cytoplasm and does not stain the cell nucleus; also recorded: localises within the cell cytoplasm and does not stain the cell nucleus”. Besides, the “positive fluorescent cells on day 6” value in test [3] was determined as 15.0 ± 0.7%.

Source of the values: paper PMC10535741, “Styrylpyridinium Derivatives for Fluorescent Cell Imaging” (Pharmaceuticals, 2023).
